Experimental data from patent US11020374B2, “Sulcardine salts” (HUYA Bioscience International, LLC, priority 2019, dated 2021).
Several values for one entry are separate records, joined by “and”; a condition that tells them apart may be missing. Equal entries are not always repeated. Structures can show the parent of a compound that is named as a salt.

Experiments:
[1] = One-week stability studies (40° C./75% RH, 80° C., ambient light) by XRPD and HPLC; type: physicochemical; details: for HPLC purity after stability experiment: 99% before; for stability by XRPD / appearance: one week at 80° C. and ambient humidity
Description: For all of the stability studies provided herein under the condition of 40° C. and 75% RH, samples were in an uncapped vial and stored in a stability chamber set to 40° C./75% RH. For the 80° C. studies, samples were in a sealed vial and placed in an oven set to 80° C. For the ambient light studies, the samples were in a sealed vial placed on a windowsill in the lab which was exposed to ambient natural and artificial light.

[2] = Dynamic vapor sorption (DVS) experiment; type: physicochemical; details: for crystalline form of the salt before the DVS experiment and afterwards: XRPD form before vs after DVS; for uptake of water (DVS): at 90% RH
[3] = cited from earlier work; for pKa 1: first pKa
[4] = Solubility in 20 mM buffers (Example 3), slurried ca. 72 hr, HPLC concentration; type: physicochemical; details: pH 1.2
Description: 20 mM buffers were prepared to pH 1.2 (HCl/KCl), pH 3.0 (HCl/glycine), pH 4.0 (citric acid/sodium citrate) and pH 7.4 (potassium phosphate monobasic/NaOH). To 0.5 mL of each buffer, the appropriate salt was added to form a slurry. The pH of the slurry was measured and adjusted back to the desired pH (i.e., the initial pH of the buffer) if necessary using 0.2 M buffer components (e.g. 0.2 M HCl(aq)). […] After this time, if solid remained, the pH was again adjusted back to the desired pH if necessary using 0.2 M buffer components. If no solid remained, additional solid was added to reform the slurry before the pH was again adjusted back to the desired pH if necessary using 0.2 M buffer components. All samples were then slurried for a further 2 hr before being analysed by HPLC for concentration.

[5] = GVS (gravimetric vapor sorption) with post-GVS XRPD; type: physicochemical; details: 40-90-0-40% RH, 25° C., two cycles
Description: Form II was first observed during the GVS characterization of Form I. The material collected post-GVS analysis of Form I was analyzed by XRPD. […] The XRPD reference is “LNB15318-53-1-PostGVS” in FIG. 34.
Approximately 26 mg of Form I was placed into a mesh vapor sorption balance pan and loaded into an IGASorp Moisture Sorption Analyser balance by Hiden Analytical. The sample was subjected to a ramping profile from 40-90% relative humidity (RH) at 10% increments, maintaining the sample at each step until a stable weight had been achieved (98% step completion, minimum step length 30 minutes, maximum step length 60 minutes) at 25° C. After completion of the sorption cycle, the sample was dried using the same procedure to 0% RH, and finally taken back to the starting point of 40% RH. Two cycles were performed. The weight change during the sorption/desorption cycles were plotted, allowing for the hygroscopic nature of the sample to be determined. The material collected post-GVS analysis was analyzed by XRPD.

[6] = Sulcardine salts PK analysis, oral capsule administration; type: in vivo; details: single oral capsule administration, fasted male Beagle dogs
Description: The pharmacokinetic objective of this study was to assess the exposure to sulcardine following oral capsule administration or intravenous (IV) infusion of sulcardine sulfate salt, sulcardine naphthoate salt, or sulcardine mono-edisylate salt (Form II) to male dogs during a pharmacokinetic study.
Non-naïve Beagle Dogs were fasted. Dosing formulations (oral [PO] capsule and intravenous [IV] infusion) were prepared on the day prior to dosing. The IV formulations were made in 10 mM Glycine (pH adjusted to 3.0±0.1), 3% Mannitol, qs in Sterile Water for Injection, USP were filtered through a 0.22 μm PVDF filter and stirred for at least 30 minutes prior to dosing. The capsule doses were encapsulated as active pharmaceutical ingredient powder into the appropriate number of […] gelatin capsules on the day prior to dosing.
Oral dosing was once on Day 1 by oral capsule administration; IV dosing was once on Day 1 by IV infusion over approximately 45 minutes (±2 minutes).
The blood samples for animals dosed orally were collected at 0.5, 1, 2, 3, 5, 8, 12, 18, 24, and 36 hours postdose. The blood samples for animals dosed IV were collected at approximately 0.33, 0.75 (end of infusion), 1.5, 3, 6, 9, 12, 18, and 24 hours post the start of infusion.
The blood samples were centrifuged under refrigerated (2° C. to 8° C.) conditions at 3,200 RPM for 10 minutes and the resulting plasma was divided into two aliquots (150 μL and remaining) then frozen and shipped for bioanalysis. Plasma samples were analyzed for concentrations of sulcardine by Citoxlab North America, Laval, Québec, Canada.
Individual sulcardine plasma concentration time profiles from sulcardine sulfate salt, sulcardine mono-edisylate salt, or sulcardine naphthoate salt treated animals were analyzed using model-independent methods (Gibaldi M, Perrier D. Pharmacokinetics. 2nd ed. New York: Marcel Dekker, Inc., 1982:409-17). Pharmacokinetic parameters were obtained/calculated for each animal on Day 1.

[7] = one week at 40° C. and 75% RH, uncapped vial
[8] = one week under ambient light conditions, sealed vial
[9] = one week under ambient light conditions
[10] = increase in relative humidity (RH) from about 10% to about 90%

| SMILES | stability by XRPD [1, 7] | HPLC purity after stability experiment ([1]; one week at 40° C. and 75% RH) | stability by XRPD / appearance ([1]; sealed vial) | HPLC purity after stability experiment ([1]; one week at 80° C.) | stability by XRPD [1, 8] | HPLC purity after stability experiment [1, 9] | crystalline form of the salt before the DVS experiment and afterwards [2] | uptake of water (DVS) [2] | mass increase [2, 10] | further results |
| --- | --- | --- | --- | --- | --- | --- | --- | --- | --- | --- |
| COc1ccc(NS(=O)(=O)c2cc(CN3CCCC3)c(O)c(CN3CCCC3)c2)cc1.O=S(=O)(O)c1cccc2c(S(=O)(=O)O)cccc12 [Example 5, naphthalene-1,5-disulfonic acid salt of sulcardine] | unchanged | 99% | unchanged | 99% | unchanged | 99% | the same | about 3.3% |  | mass increase ([2]; increase in relative humidity (RH) from about 5% to about 95%): about 3.3% |
| COc1ccc(NS(=O)(=O)c2cc(CN3CCCC3)c(O)c(CN3CCCC3)c2)cc1.O=S(=O)(O)c1ccc2ccccc2c1 [Example 10, naphthalene-2-sulfonic acid salt of sulcardine] | unchanged | 99% and 98% | changed into an orange gel | 90% | unchanged by XRPD but had turned pale yellow | 99% and 97% |  |  |  | stability by XRPD / appearance ([1]; sealed vial, listed as Example 9): unchanged; HPLC purity after stability experiment ([1]; one week at 80° C., listed as Example 9): 99%; stability by XRPD ([1]; one week under ambient light conditions, sealed vial, listed as Example 9): unchanged |
| COc1ccc(S(=O)(=O)NCc2cc(CN3CCCC3)c(O)c(CN3CCCC3)c2)cc1 [Example 12, sulcardine hydrochloride] | unchanged | 98% | changed into an orange gel | 90% | unchanged | 99% | the same | about 2.2% | about 2.2% |  |
| O=S(=O)(O)CCS(=O)(=O)O [1,2-Ethanedisulfonic acid] |  |  |  |  |  |  |  |  |  | pKa 1 [3]: −2.06 |
| COc1ccc(NS(=O)(=O)c2cc(CN3CCCC3)c(O)c(CN3CCCC3)c2)cc1.O=C(O)c1ccc2ccccc2c1O [Example 8, 1-hydroxy-2-naphthoic acid salt of sulcardine] |  |  |  |  |  |  |  |  | about 0.7% | Crystallinity of the material in the solubility experiment [4]: loses crystallinity |
| COc1ccc(NS(=O)(=O)c2cc(CN3CCCC3)c(O)c(CN3CCCC3)c2)cc1.O=S(=O)(O)CCS(=O)(=O)O [Example 17, mono-ethane-1,2-disulfonic acid salt of sulcardine] |  |  |  |  |  |  |  |  |  | XRPD of material collected post-GVS analysis [5]: A new pattern (denoted Form II) was observed |
| COc1ccc(NS(=O)(=O)c2cc(CN3CCCC3)c(O)c(CN3CCCC3)c2)cc1.O=S(=O)(O)CCS(=O)(=O)O [Example 18, mono-ethane-1,2-disulfonic acid salt of sulcardine] |  |  |  |  |  |  |  |  |  | Cmax of sulcardine in plasma ([6]; group average): 4570 ng/mL; Tmax (median peak sulcardine plasma concentration) ([6]; median): 30 min |
| COc1ccc(NS(=O)(=O)c2cc(CN3CCCC3)c(O)c(CN3CCCC3)c2)cc1.COc1ccc(NS(=O)(=O)c2cc(CN3CCCC3)c(O)c(CN3CCCC3)c2)cc1.O=S(=O)(O)CCS(=O)(=O)O [Example 14, hemi-ethane-1,2-disulfonic acid salt of sulcardine] | unchanged | 98% | unchanged | 97% | unchanged | 97% | the same | about 0.5% | about 0.5% |  |
| COc1ccc(S(=O)(=O)NCc2cc(CN3CCCC3)c(O)c(CN3CCCC3)c2)cc1 [Sulcardine free base comparator, 4-methoxy-N-(3,5-bis-(1-pyrrolidinylmethyl)-4-hydroxybenzyl)benzene sulfonamide] |  |  |  |  |  |  |  |  |  | pKa 1 [3]: 6.00; pKa 2 ([3]; second pKa): 10.57; pKa 3 ([3]; third pKa): 11.65 |
| COc1ccc(S(=O)(=O)NCc2cc(CN3CCCC3)c(O)c(CN3CCCC3)c2)cc1 [sulfate salt, Sulcardine sulfate, reference compound] |  |  |  |  |  |  |  |  |  | Cmax ([6]; dog, plasma, group average): 2820 ng/mL; Tmax ([6]; dog, plasma, median, read-out: Tmax (median peak sulcardine plasma concentration)): 2 h |
